Reference: ChEMBL document CHEMBL6083193, “Advancing drug discovery: Thiadiazole derivatives as multifaceted agents in medicinal chemistry and pharmacology” (Bioorg Med Chem, 2024)
≈ marks a conversion by molar mass, not a printed value. Values belong to the compound of their own block, whether it stands above or below them.

Experiments:
Toxoplasma gondii = test: Antiparasitic activity against Toxoplasma gondii RH infected in human HFF cells; type: functional, organism-based
[1] = Antioxidant activity assessed as DPPH radical scavenging activity measured for 30 mins by spectrophotometric analysis; type: functional
Alpha glucosidase = Alpha glucosidase (Homo sapiens, UniProt O43451+P10253+P14410+Q2M2H8); test: Inhibition of Alpha-glucosidase (unknown origin); type: protein assay
[2] = Inhibition of Alpha-amylase (unknown origin); parameters: species or system Homo sapiens
Mus musculus = test: Antiinflammatory activity against carrageenan-induced paw edema in Swiss mouse assessed as reduction in paw edema at 15 mg/kg, po relative to control; type: functional; parameters: scale not given: the % may be the effect or the level left
A549 [3] = test: Cytotoxicity against human A549 cells assessed as reduction in cell growth; type: functional, cell-based
MCF7 = test: Anticancer activity against human MCF7 cells by MTT assay; type: functional, cell-based
A549 [4] = test: Anticancer activity against human A549 cells by MTT assay; type: functional, cell-based
COLO 205 = test: Anticancer activity against human COLO 205 cells by MTT assay; type: functional, cell-based
A2780 = test: Anticancer activity against human A2780 cells by MTT assay; type: functional, cell-based

SMILES: Cc1nc[nH]c1-c1nnc(Nc2cccc(Br)c2)s1
IC50 (Toxoplasma gondii): 4.7 µg/mL (≈ 14 µM)

SMILES: Cc1[nH]cnc1-c1nnc(Nc2ccc(Cl)cc2)s1
IC50 (Toxoplasma gondii): 4.7 µg/mL (≈ 16.1 µM)

IC50 [1]: 37.25 µg/mL (≈ 137 µM)
SMILES: N#C/C(=N\Nc1ccccc1)C(=O)Nc1nncs1

IC50 (Alpha glucosidase): 2200 nM
IC50 [2]: 1300 nM
SMILES: O=[N+]([O-])c1cccc(NC(=S)Nc2nsc(Nc3ccc(F)cc3)n2)c1

SMILES: O=C1N/C(=N\c2nnc(C34CC5CC(CC(C5)C3)C4)s2)S/C1=C\c1ccc(F)cc1
Activity (Mus musculus): 66.7%

SMILES: O=C1N/C(=N\c2nnc(C34CC5CC(CC(C5)C3)C4)s2)S/C1=C\c1c(Cl)cccc1Cl
Activity (Mus musculus): 66.7%

IC50 [1]: 44.35 µg/mL (≈ 115 µM)
SMILES: O=C1CS/C(=N\c2nn(-c3ccccc3)nc2C(=O)Nc2nncs2)N1

SMILES: O=C1N/C(=N\c2nnc(C34CC5CC(CC(C5)C3)C4)s2)S/C1=C\c1ccc(Cl)cc1Cl
Activity (Mus musculus): 66.7%

SMILES: CCNc1nnc(SCC(=O)N2N=C(c3ccccc3)CC2c2ccc([N+](=O)[O-])cc2)s1 (stereo unspecified)
IC50 (A549 [3]): 10000 nM

IC50 (Alpha glucosidase): 2200 nM
IC50 [2]: 1300 nM
SMILES: O=[N+]([O-])c1ccccc1NC(=S)Nc1nsc(Nc2ccc(Cl)c(Cl)c2)n1

IC50 [1]: 22.63 µg/mL (≈ 62.2 µM)
SMILES: O=C(CCl)Nc1nn(-c2ccccc2)nc1C(=O)Nc1nncs1

SMILES: CC(C)Nc1nnc(SCC(=O)N2N=C(c3ccccc3)CC2c2ccc([N+](=O)[O-])cc2)s1 (stereo unspecified)
IC50 (A549 [3]): 10000 nM

IC50 (Alpha glucosidase): 2200 nM
IC50 [2]: 1300 nM
SMILES: O=[N+]([O-])c1ccc(NC(=S)Nc2nsc(Nc3ccc(Cl)cc3)n2)cc1

SMILES: Cc1nc[nH]c1-c1nnc(Nc2ccccc2Br)s1
IC50 (Toxoplasma gondii): 4.7 µg/mL (≈ 14 µM)

IC50 (Alpha glucosidase): 2200 nM
IC50 [2]: 1300 nM
SMILES: O=[N+]([O-])c1cccc(Nc2nc(NC(=S)Nc3ccc(Cl)cc3Cl)ns2)c1

SMILES: Cc1[nH]cnc1-c1nnc(Nc2ccc(F)cc2)s1
IC50 (Toxoplasma gondii): 4.7 µg/mL (≈ 17.1 µM)

SMILES: O=C(CSc1nnc(NC2CCCCC2)s1)N1N=C(c2ccccc2)CC1c1ccc([N+](=O)[O-])cc1 (stereo unspecified)
IC50 (A549 [3]): 10000 nM

SMILES: O=C1N/C(=N\c2nnc(C34CC5CC(CC(C5)C3)C4)s2)S/C1=C\c1cccc(F)c1F
Activity (Mus musculus): 66.7%

SMILES: COc1ccc(/C=C2\S/C(=N/c3nnc(C45CC6CC(CC(C6)C4)C5)s3)NC2=O)cc1
Activity (Mus musculus): 66.7%

SMILES: O=C1N/C(=N\c2nnc(C34CC5CC(CC(C5)C3)C4)s2)S/C1=C\c1c(F)cccc1F
Activity (Mus musculus): 66.7%

SMILES: Cc1nc[nH]c1-c1nnc(Nc2cccc(F)c2)s1
IC50 (Toxoplasma gondii): 4.7 µg/mL (≈ 17.1 µM)

IC50 (Alpha glucosidase): 2200 nM
IC50 [2]: 1300 nM
SMILES: O=[N+]([O-])c1ccc(NC(=S)Nc2nsc(Nc3cccc([N+](=O)[O-])c3)n2)cc1

IC50 (Alpha glucosidase): < 500000 nM
IC50 [2]: 2590 nM
SMILES: Cc1cccc(CN2C(=O)/C(=N\Nc3nncs3)c3ccccc32)c1

SMILES: Cc1nc[nH]c1-c1nnc(Nc2ccccc2I)s1
IC50 (Toxoplasma gondii): 4.7 µg/mL (≈ 12.3 µM)

IC50 (Alpha glucosidase): 2200 nM
IC50 [2]: 1300 nM
SMILES: S=C(Nc1ccc(Br)cc1)Nc1nsc(Nc2ccc(Cl)cc2)n1

SMILES: Cc1nc[nH]c1-c1nnc(Nc2ccc(Br)cc2)s1
IC50 (Toxoplasma gondii): 4.7 µg/mL (≈ 14 µM)

IC50 (Alpha glucosidase): < 500000 nM
IC50 [2]: 3870 nM
SMILES: CCc1ccc(C2SCC(=O)N2c2nnc(-c3ccccc3)s2)cc1 (stereo unspecified)

SMILES: O=C1N/C(=N\c2nnc(C34CC5CC(CC(C5)C3)C4)s2)S/C1=C\c1cccc(Cl)c1Cl
Activity (Mus musculus): 66.7%

IC50 (MCF7): 110 nM
IC50 (A549 [4]): 110 nM
IC50 (COLO 205): 110 nM
IC50 (A2780): 110 nM
SMILES: O=C(Nc1cc([N+](=O)[O-])cc([N+](=O)[O-])c1)c1ccc(-c2nsc(-c3csc(-c4ccncc4)n3)n2)cc1

IC50 (Alpha glucosidase): 2200 nM
IC50 [2]: 1300 nM
SMILES: Fc1ccccc1NC(=S)Nc1nsc(Nc2ccc(Cl)c(Cl)c2)n1

IC50 (Alpha glucosidase): 2200 nM
IC50 [2]: 1300 nM
SMILES: O=[N+]([O-])c1cccc(NC(=S)Nc2nsc(Nc3cccc([N+](=O)[O-])c3)n2)c1

SMILES: Cc1nc[nH]c1-c1nnc(Nc2cccc(Cl)c2)s1
IC50 (Toxoplasma gondii): 4.7 µg/mL (≈ 16.1 µM)

SMILES: O=C1N/C(=N\c2nnc(C34CC5CC(CC(C5)C3)C4)s2)S/C1=C\c1ccc([N+](=O)[O-])cc1
Activity (Mus musculus): 66.7%

SMILES: COc1ccc(Nc2nnc(SCC(=O)N3N=C(c4ccccc4)CC3c3ccc([N+](=O)[O-])cc3)s2)cc1 (stereo unspecified)
IC50 (A549 [3]): 10000 nM

SMILES: O=C1N/C(=N\c2nnc(C34CC5CC(CC(C5)C3)C4)s2)S/C1=C\c1ccc(O)cc1
Activity (Mus musculus): 66.7%

IC50 (MCF7): 110 nM
IC50 (A549 [4]): 110 nM
IC50 (COLO 205): 110 nM
IC50 (A2780): 110 nM
SMILES: N#Cc1ccc(NC(=O)c2ccc(-c3nsc(-c4csc(-c5ccncc5)n4)n3)cc2)cc1

SMILES: COc1cccc(/C=C2\S/C(=N/c3nnc(C45CC6CC(CC(C6)C4)C5)s3)NC2=O)c1
Activity (Mus musculus): 66.7%

SMILES: Cc1nc[nH]c1-c1nnc(Nc2ccc(I)cc2)s1
IC50 (Toxoplasma gondii): 4.7 µg/mL (≈ 12.3 µM)

IC50 (Alpha glucosidase): 2200 nM
IC50 [2]: 1300 nM
SMILES: FC(F)(F)c1cccc(Nc2nc(NC(=S)Nc3ccccc3)ns2)c1

IC50 (Alpha glucosidase): 2200 nM
IC50 [2]: 1300 nM
SMILES: Cc1ccc(NC(=S)Nc2nsc(Nc3ccc(Cl)cc3)n2)cc1

IC50 (Alpha glucosidase): < 500000 nM
SMILES: CSc1ccc(C2SCC(=O)N2c2nnc(-c3ccccc3)s2)cc1 (stereo unspecified)

IC50 (Alpha glucosidase): 2200 nM
IC50 [2]: 1300 nM
SMILES: COc1cccc(NC(=S)Nc2nsc(Nc3ccc(Cl)c(Cl)c3)n2)c1

IC50 (Alpha glucosidase): 2200 nM
IC50 [2]: 1300 nM
SMILES: FC(F)(F)c1cccc(Nc2nc(NC(=S)Nc3ccc(Cl)cc3)ns2)c1

IC50 (MCF7): 110 nM
IC50 (A549 [4]): 110 nM
IC50 (COLO 205): 110 nM
IC50 (A2780): 110 nM
SMILES: O=C(Nc1ccc(Br)cc1)c1ccc(-c2nsc(-c3csc(-c4ccncc4)n3)n2)cc1

IC50 (MCF7): 110 nM
IC50 (A549 [4]): 110 nM
IC50 (COLO 205): 110 nM
IC50 (A2780): 110 nM
SMILES: O=C(Nc1ccc(Cl)cc1)c1ccc(-c2nsc(-c3csc(-c4ccncc4)n3)n2)cc1

IC50 (Alpha glucosidase): 2200 nM
IC50 [2]: 1300 nM
SMILES: S=C(Nc1ccc(Cl)c(Cl)c1)Nc1nsc(Nc2ccc(Cl)c(Cl)c2)n1

SMILES: Cc1nc[nH]c1-c1nnc(Nc2cccc(I)c2)s1
IC50 (Toxoplasma gondii): 4.7 µg/mL (≈ 12.3 µM)

SMILES: O=C1N/C(=N\c2nnc(C34CC5CC(CC(C5)C3)C4)s2)S/C1=C\c1ccccc1[N+](=O)[O-]
Activity (Mus musculus): 66.7%

SMILES: CCCCNc1nnc(SCC(=O)N2N=C(c3ccccc3)CC2c2ccc([N+](=O)[O-])cc2)s1 (stereo unspecified)
IC50 (A549 [3]): 10000 nM

IC50 (MCF7): 110 nM
IC50 (A549 [4]): 110 nM
IC50 (COLO 205): 110 nM
IC50 (A2780): 110 nM
SMILES: Cc1cc(C)cc(NC(=O)c2ccc(-c3nsc(-c4csc(-c5ccncc5)n4)n3)cc2)c1

SMILES: Cc1ccc(/C=C2\S/C(=N/c3nnc(C45CC6CC(CC(C6)C4)C5)s3)NC2=O)cc1
Activity (Mus musculus): 66.7%

SMILES: CN(C)c1ccc(/C=C2\S/C(=N/c3nnc(C45CC6CC(CC(C6)C4)C5)s3)NC2=O)cc1
Activity (Mus musculus): 66.7%

IC50 (Alpha glucosidase): 2200 nM
IC50 [2]: 1300 nM
SMILES: COc1ccccc1NC(=S)Nc1nsc(Nc2ccc(Cl)c(Cl)c2)n1

SMILES: O=C1N/C(=N\c2nnc(C34CC5CC(CC(C5)C3)C4)s2)S/C1=C\c1cccc([N+](=O)[O-])c1
Activity (Mus musculus): 66.7%

SMILES: O=C1N/C(=N\c2nnc(C34CC5CC(CC(C5)C3)C4)s2)S/C1=C\c1ccccc1
Activity (Mus musculus): 66.7%

SMILES: CCCNc1nnc(SCC(=O)N2N=C(c3ccccc3)CC2c2ccc([N+](=O)[O-])cc2)s1 (stereo unspecified)
IC50 (A549 [3]): 10000 nM

SMILES: Cc1ccc(Nc2nnc(SCC(=O)N3N=C(c4ccccc4)CC3c3ccc([N+](=O)[O-])cc3)s2)cc1 (stereo unspecified)
IC50 (A549 [3]): 10000 nM

SMILES: Cc1nc[nH]c1-c1nnc(Nc2ccccc2Cl)s1
IC50 (Toxoplasma gondii): 4.7 µg/mL (≈ 16.1 µM)

IC50 (MCF7): 110 nM
IC50 (A549 [4]): 110 nM
IC50 (COLO 205): 110 nM
IC50 (A2780): 110 nM
SMILES: O=C(Nc1ccc([N+](=O)[O-])cc1)c1ccc(-c2nsc(-c3csc(-c4ccncc4)n3)n2)cc1

IC50 (Alpha glucosidase): 2200 nM
IC50 [2]: 1300 nM
SMILES: O=[N+]([O-])c1ccccc1NC(=S)Nc1nsc(Nc2cccc(C(F)(F)F)c2)n1

SMILES: O=C1N/C(=N\c2nnc(C34CC5CC(CC(C5)C3)C4)s2)S/C1=C\c1ccc(Br)cc1
Activity (Mus musculus): 66.7%
